Legend:
[1] = Replicon activity assay (replicon RNA by real-time RT-PCR); format: cell-based, HCV; conditions: Hepatitis C virus, 72 h; replicon RNA level, three days post-dosing, 10% fetal bovine serum; read-out: Replicon (1a) EC50
[2] = tested on: replicon cells; assay: Cytotoxicity MTS assay in replicon cells; format: cell-based; conditions: CC50, MTS assay, three days post dosing
Description: To measure cell-based anti-HCV activity of the compounds of the present invention, replicon cells (1b-Con1) are seeded at 5000 cells/well in 96-well plates one day prior to treatment with a compound of the invention. Various concentrations of a test compound of the invention in DMSO are then added to the replicon cells, with the final concentration of DMSO at 0.5% and fetal bovine serum at 10% in the assay media. Cells are harvested three days post-dosing and the replicon RNA level is determined using real-time RT-PCR (Taqman assay) with GAPDH RNA as endogenous control. EC50 values are calculated from experiments with 10 serial twofold dilutions of the inhibitor in triplicate. To measure cytotoxicity in replicon cells of an inhibitor, an MTS assay is performed according to the manufacturer's protocol for CellTiter 96 Aqueous One Solution Cell Proliferation Assay (Promega, Cat #G3580) three days post dosing on cells treated identically as in replicon activity assays. CC50 is the concentration of inhibitor that yields 50% inhibition compared to vehicle-treated cells. Cytotoxicity in other types of cells can be measured using the same MTS protocol.

SMILES | EC50 [1] [µM] | Cytotoxicity [2] [µM]
C[C@@]1(N)C2O[P@@](=O)(OC3CCC3)OC[C@H]2O[C@H]1n1ccc(=O)[nH]c1=O (stereo partly drawn) | > 100 | >100
C[C@@]1(N)[C@@H]2O[P@@](=O)(OC3CCCC3)OC[C@H]2O[C@H]1n1ccc(=O)[nH]c1=O | > 100 | >100
CCC(CC)CO[P@@]1(=O)OC[C@H]2O[C@@H](n3ccc(=O)[nH]c3=O)[C@](C)(N)[C@@H]2O1 | 43.2 | >100
C[C@@]1(N)[C@@H]2O[P@@](=O)(OCc3ccccc3)OC[C@H]2O[C@H]1n1ccc(=O)[nH]c1=O | 56.2 | >100
CCCC(CCC)CO[P@@]1(=O)OC[C@H]2O[C@@H](n3ccc(=O)[nH]c3=O)[C@](C)(N)[C@@H]2O1 | > 100 | >100
CC(C)O[P@@]1(=O)OC[C@H]2O[C@@H](n3ccc(=O)[nH]c3=O)[C@](C)(N)C2O1 (stereo partly drawn) | > 100 | >100
